Source: patent US10517889B2, “Modulators of SMAD7 expression” (Ionis Pharmaceuticals, Inc., priority 2017, dated 2019)
Strand notation (5' to 3'): a small letter for the sugar, then the base; units joined by * are phosphorothioate-linked, units joined directly phosphodiester-linked; [ ] holds rarer units or linkages, { } end groups; capitals alone tell only the bases. e = 2'-O-(2-methoxyethyl) (MOE); [5mC] = 5-methylcytosine; d = 2'-deoxy (DNA)

Columns and labels:
[1] = tested on: human SMAD7 mRNA; experiment: Antisense inhibition of human SMAD7 mRNA expression in Hep3B cells by 5-10-5 MOE gapmers, single concentration, electroporation, RT-PCR (Example 1, Study 1 and 2); format: cell-based
Method in brief: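 Hep3B cells (20,000/well) electroporated with 5-10-5 MOE gapmer at 5,000 nM or 15,000 nM for approximately 24 h. SMAD7 mRNA quantified by real-time PCR with primer probe set RTS5062 and normalized to RIBOGREEN total RNA. Values are percent inhibition relative to untreated controls.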

[2] = tested on: human SMAD7 mRNA; experiment: Dose-dependent inhibition of human SMAD7 mRNA expression in Hep3B cells (Example 3, Study 1 and 2); format: cell-based; settings: electroporation; for % inhibition of SMAD7 mRNA expression: approximately 16 hours; for IC50: Study 1 (312.5-20000 nM)
Method in brief: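 Hep3B cells, 20,000 per well, electroporated with antisense oligonucleotide at 0.31, 1.25, 5.00 or 20.00 μM (first series) or 0.74, 2.22, 6.67 or 20.00 μM (second series). After ~16 h, SMAD7 mRNA measured by RT-qPCR (RTS5062), normalised to RIBOGREEN total RNA. Percent inhibition vs untreated cells; IC50 derived.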

[3] = electroporation, 15,000 nM antisense oligonucleotide (Study 2), 5-10-5 MOE gapmers targeting SEQ ID NO: 1 and 2
[4] = 312.5 nM, Study 1, relative to untreated control cells
[5] = electroporation, 15,000 nM, approximately 24 hours, relative to untreated control cells, gapmers targeting SEQ ID NO: 1 and 2
[6] = Study 2, electroporation with 15,000 nM antisense oligonucleotide, 5-10-5 MOE gapmers targeting SEQ ID NO: 1 and 2

## 771506 (antisense eG*e[5mC]*eT*e[5mC]*eA*dG*d[5mC]*dT*d[5mC]*dA*d[5mC]*dG*d[5mC]*dT*d[5mC]*eT*eG*eT*e[5mC]*e[5mC]) [compound 771506]
[1]; [3]
  % inhibition of SMAD7 mRNA expression: 53%
[2]; [4]
  % inhibition of SMAD7 mRNA expression: 54%
[2]; 1250.0 nM, Study 1
  % inhibition of SMAD7 mRNA expression: 1%
[2]; 5000.0 nM, Study 1
  % inhibition of SMAD7 mRNA expression: 5%
[2]; 20000.0 nM, Study 1
  % inhibition of SMAD7 mRNA expression: 44%
[2]
  IC50: > 20 µM

## 771509 (antisense eG*eG*e[5mC]*e[5mC]*eT*dG*d[5mC]*dT*d[5mC]*dA*dG*d[5mC]*dT*d[5mC]*dA*e[5mC]*eG*e[5mC]*eT*e[5mC]) [compound 771509]
[1]; [5]
  % inhibition of SMAD7 mRNA expression: 65%
[2]; [4]
  % inhibition of SMAD7 mRNA expression: 0%
[2]; 1250.0 nM, Study 1
  % inhibition of SMAD7 mRNA expression: 0%
[2]; 5000.0 nM, Study 1
  % inhibition of SMAD7 mRNA expression: 13%
[2]; 20000.0 nM, Study 1
  % inhibition of SMAD7 mRNA expression: 47%
[2]
  IC50: > 20 µM

## 771552 (antisense e[5mC]*eT*eT*eG*eG*dA*dT*dT*dT*d[5mC]*dT*dG*d[5mC]*dT*dT*e[5mC]*e[5mC]*e[5mC]*e[5mC]*eT) [compound 771552]
[1]; electroporation with 15,000 nM antisense oligonucleotide (Study 2), 5-10-5 MOE gapmers targeting SEQ ID NO: 1 and 2
  % Inhibition of SMAD7 mRNA: 53%
[1]; [3]
  % inhibition of SMAD7 mRNA expression: 28%
[2]; [4]
  % inhibition of SMAD7 mRNA expression: 2%
[2]; 1250.0 nM, Study 1
  % inhibition of SMAD7 mRNA expression: 25%
[2]; 5000.0 nM, Study 1
  % inhibition of SMAD7 mRNA expression: 20%
[2]; 20000.0 nM, Study 1
  % inhibition of SMAD7 mRNA expression: 45%
[2]
  IC50: > 20 µM

## 771556 (antisense e[5mC]*e[5mC]*e[5mC]*eT*eT*d[5mC]*dA*dT*dA*d[5mC]*dA*d[5mC]*dT*dG*dT*eG*eT*eT*eT*eG) [compound 771556]
[1]; [6]
  % inhibition of SMAD7 mRNA expression: 30%
[2]; [4]
  % inhibition of SMAD7 mRNA expression: 1%
[2]; 1250.0 nM, Study 1
  % inhibition of SMAD7 mRNA expression: 0%
[2]; 5000.0 nM, Study 1
  % inhibition of SMAD7 mRNA expression: 9%
[2]; 20000.0 nM, Study 1
  % inhibition of SMAD7 mRNA expression: 33%
[2]
  IC50: > 20 µM

## 771570 (antisense eT*eG*eG*eG*eA*d[5mC]*dT*dG*d[5mC]*dA*dA*dA*d[5mC]*d[5mC]*dT*e[5mC]*eT*e[5mC]*eT*eG) [compound 771570]
[1]; [3]
  % inhibition of SMAD7 mRNA expression: 60%
[2]; [4]
  % inhibition of SMAD7 mRNA expression: 0%
[2]; 1250.0 nM, Study 1
  % inhibition of SMAD7 mRNA expression: 0%
[2]; 5000.0 nM, Study 1
  % inhibition of SMAD7 mRNA expression: 43%
[2]; 20000.0 nM, Study 1
  % inhibition of SMAD7 mRNA expression: 48%
[2]
  IC50: > 20 µM

## 771572 (antisense e[5mC]*eT*eT*eG*eG*dG*dA*d[5mC]*dT*dG*d[5mC]*dA*dA*dA*d[5mC]*e[5mC]*eT*e[5mC]*eT*e[5mC]) [compound 771572]
[1]; [6]
  % inhibition of SMAD7 mRNA expression: 37%
[2]; [4]
  % inhibition of SMAD7 mRNA expression: 0%
[2]; 1250.0 nM, Study 1
  % inhibition of SMAD7 mRNA expression: 10%
[2]; 5000.0 nM, Study 1
  % inhibition of SMAD7 mRNA expression: 38%
[2]; 20000.0 nM, Study 1
  % inhibition of SMAD7 mRNA expression: 13%
[2]
  IC50: > 20 µM

## 771573 (antisense eG*e[5mC]*eT*eT*eG*dG*dG*dA*d[5mC]*dT*dG*d[5mC]*dA*dA*dA*e[5mC]*e[5mC]*eT*e[5mC]*eT) [compound 771573]
[1]; [5]
  % inhibition of SMAD7 mRNA expression: 65%
[2]; [4]
  % inhibition of SMAD7 mRNA expression: 0%
[2]; 1250.0 nM, Study 1
  % inhibition of SMAD7 mRNA expression: 5%
[2]; 5000.0 nM, Study 1
  % inhibition of SMAD7 mRNA expression: 24%
[2]; 20000.0 nM, Study 1
  % inhibition of SMAD7 mRNA expression: 56%
[2]
  IC50: 18 µM

## 771574 (antisense e[5mC]*eG*e[5mC]*eT*eT*dG*dG*dG*dA*d[5mC]*dT*dG*d[5mC]*dA*dA*eA*e[5mC]*e[5mC]*eT*e[5mC]) [compound 771574]
[1]; [6]
  % inhibition of SMAD7 mRNA expression: 66%
[2]; [4]
  % inhibition of SMAD7 mRNA expression: 0%
[2]; 1250.0 nM, Study 1
  % inhibition of SMAD7 mRNA expression: 5%
[2]; 5000.0 nM, Study 1
  % inhibition of SMAD7 mRNA expression: 36%
[2]; 20000.0 nM, Study 1
  % inhibition of SMAD7 mRNA expression: 58%
[2]
  IC50: 13 µM

## 771581 (antisense eG*eG*eG*eA*e[5mC]*d[5mC]*d[5mC]*d[5mC]*dA*dG*d[5mC]*d[5mC]*dG*d[5mC]*d[5mC]*eA*eG*e[5mC]*eT*eT) [compound 771581]
[1]; [5]
  % inhibition of SMAD7 mRNA expression: 58%
[2]; [4]
  % inhibition of SMAD7 mRNA expression: 0%
[2]; 1250.0 nM, Study 1
  % inhibition of SMAD7 mRNA expression: 0%
[2]; 5000.0 nM, Study 1
  % inhibition of SMAD7 mRNA expression: 9%
[2]; 20000.0 nM, Study 1
  % inhibition of SMAD7 mRNA expression: 65%
[2]
  IC50: 19 µM
